The record followed here is patent US20100056508A1, “AMINE DERIVATIVES AND THEIR USE IN BETA-2-ADRENORECEPTOR MEDIATED DISEASES” (ASTRAZENECA AB, priority 2006, published 2010).

Structures can show the parent of a compound that is named as a salt. Bounds are passed on as bounds.

One assay has as its target T1, Adrenergic β2 (Homo sapiens, UniProt P07550).
T1 construct: Adherent H292 cells were removed from tissue culture flasks; endogenous in cells; host or cells: H292 cells
The assay can be described thus: Adrenergic β2 mediated cAMP production in H292 cells (AlphaScreen cAMP detection). The conditions noted are these: for β2 Int Act: Intrinsic Activity as a fraction relative to the maximum activity determined for formoterol; for EC50: cAMP production, 60 minutes at room temperature, 300 μM rolipram, read-out: β2 pEC50 (converted). The arrangement: key to β2 Int Act: fraction of formoterol maximum activity (formoterol = 1). In kind it is cell-based. The method, boiled down:
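H292 cells pre-treated 10 min with rolipram (300 μM final), then given agonist for 60 min at room temperature in HBSS/10 mM HEPES pH 7.4, 1.6% DMSO final. Lysate cAMP measured by AlphaScreen against a cAMP standard curve. Four-parameter fit gives pEC50; intrinsic activity relative to formoterol maximum.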
Background: Cyclic AMP is a second messenger, typically raised through Gs and lowered through Gi signalling.

Assay [1] addresses T2, recombinant human adrenergic beta 1 receptors (Homo sapiens, UniProt P08588).
T2 construct: purchased Euroscreen
The assay can be described thus: Adrenergic β1 selectivity assay, [125I]-Iodocyanopindolol binding to membranes. The conditions noted are these: inhibition of [125I]-Iodocyanopindolol binding, read-out: β1 bind pIC50 (converted). In short, it runs like this:
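Displacement of [^125I]-Iodocyanopindolol (0.036 nM final) from human β1 receptor membranes, 2 hours at room temperature, pH 7.4 HEPES/EDTA/NaCl buffer. After filtration, scintillation counting; NSB set with 10 μM propranolol and subtracted. Four-parameter logistic fitting gave pIC50.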

Assay [2] deals with T3, recombinant human Dopamine Subtype D2s receptors (Homo sapiens, UniProt P14416).
T3 construct: purchased Perkin Elmer
T3 sequence (P14416 1-414 isoform P14416-2): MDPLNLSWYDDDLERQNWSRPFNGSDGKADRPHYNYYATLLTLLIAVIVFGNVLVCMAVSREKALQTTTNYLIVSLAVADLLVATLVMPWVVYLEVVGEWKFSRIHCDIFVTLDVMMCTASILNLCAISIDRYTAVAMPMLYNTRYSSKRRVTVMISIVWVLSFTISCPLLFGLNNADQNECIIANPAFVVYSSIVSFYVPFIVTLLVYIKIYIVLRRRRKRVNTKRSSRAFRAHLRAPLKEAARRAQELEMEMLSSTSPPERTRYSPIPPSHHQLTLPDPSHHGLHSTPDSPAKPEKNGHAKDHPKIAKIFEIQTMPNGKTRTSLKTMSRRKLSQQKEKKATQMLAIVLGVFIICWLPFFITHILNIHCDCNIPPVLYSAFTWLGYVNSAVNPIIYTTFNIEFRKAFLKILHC
Nature of the assay: Dopamine D2 selectivity assay, [3H]-spiperone binding to membranes. As to conditions: inhibition of [3H]-spiperone binding, read-out: D2 bind pIC50 (converted). In short, it runs like this:
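Human D2s receptor membranes incubated 2 h at room temperature with 0.16 nM [3H]-spiperone and test compound in HEPES buffer pH 7.4 (120 mM NaCl, 0.1% gelatin). Non-specific binding defined with 10 μM haloperidol; filter-bound radioactivity counted, pIC50 from four-parameter logistic fit.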

T2 sequence (P08588 whole entry): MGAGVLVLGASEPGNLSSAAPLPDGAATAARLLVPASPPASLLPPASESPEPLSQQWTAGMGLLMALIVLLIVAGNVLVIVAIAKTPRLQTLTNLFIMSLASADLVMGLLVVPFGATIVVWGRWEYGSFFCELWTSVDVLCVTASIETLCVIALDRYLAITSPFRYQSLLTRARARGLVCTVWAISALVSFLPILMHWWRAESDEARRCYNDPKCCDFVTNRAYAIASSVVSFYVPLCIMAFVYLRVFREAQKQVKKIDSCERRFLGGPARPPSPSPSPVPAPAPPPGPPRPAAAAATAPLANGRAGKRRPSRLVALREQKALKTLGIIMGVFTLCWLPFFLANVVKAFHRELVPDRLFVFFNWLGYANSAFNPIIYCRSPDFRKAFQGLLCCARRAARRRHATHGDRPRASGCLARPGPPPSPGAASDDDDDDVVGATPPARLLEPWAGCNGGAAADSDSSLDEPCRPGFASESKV
T1 sequence (P07550 whole entry): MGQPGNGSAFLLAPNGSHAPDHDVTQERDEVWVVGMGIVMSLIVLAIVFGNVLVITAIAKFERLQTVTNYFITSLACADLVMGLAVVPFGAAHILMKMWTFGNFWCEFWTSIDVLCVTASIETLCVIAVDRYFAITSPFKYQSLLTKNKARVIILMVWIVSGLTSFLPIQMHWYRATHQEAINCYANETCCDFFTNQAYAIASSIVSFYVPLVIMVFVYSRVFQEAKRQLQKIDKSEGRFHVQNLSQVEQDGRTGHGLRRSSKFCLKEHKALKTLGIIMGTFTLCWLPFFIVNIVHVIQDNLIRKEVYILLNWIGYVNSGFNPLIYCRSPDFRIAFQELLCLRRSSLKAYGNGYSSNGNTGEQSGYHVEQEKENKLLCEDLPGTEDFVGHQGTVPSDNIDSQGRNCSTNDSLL

For `O=C1COc2c(CCNCCN(C(=O)CCNCCc3cc(F)cc(F)c3)C3CCCCCC3)ccc(O)c2N1` [Example 65, N-Cycloheptyl-3-(3,5-difluorophenethylamino)-N-(2-(2-(5-hydroxy-3-oxo-3,4-dihydro-2H-benzo[b][1,4]oxazin-8-yl)ethylamino)ethyl)propanamide bis(trifluoroacetate)], at Adrenergic β2, the “β2 Int Act” value is on record as 0.93 and the EC50 is 1.58 nM. Also, the IC50 in assay [1] is 2510 nM. Also, the IC50 in assay [2] was 126 nM.

With `O=C1COc2c(CCNCCN(C(=O)CCNCCc3cc(F)cc(Cl)c3)C3CCCCCC3)ccc(O)c2N1` [Example 66, 3-(3-Chloro-5-fluorophenethylamino)-N-cycloheptyl-N-(2-(2-(5-hydroxy-3-oxo-3,4-dihydro-2H-benzo[b][1,4]oxazin-8-yl)ethylamino)ethyl)propanamide bis(trifluoroacetate)], on Adrenergic β2, the “β2 Int Act” value is 0.99 and the EC50 was 2.51 nM. The IC50 in assay [1] is 1580 nM. Further, the IC50 in assay [2] was 39.8 nM.

In the case of `O=C1COc2c(CCNCCN(C(=O)CCNCCc3ccc(F)c(F)c3)C3CCCCCC3)ccc(O)c2N1` [Example 67, N-Cycloheptyl-3-(3,4-difluorophenethylamino)-N-(2-(2-(5-hydroxy-3-oxo-3,4-dihydro-2H-benzo[b][1,4]oxazin-8-yl)ethylamino)ethyl)propanamide bis(trifluoroacetate)], at Adrenergic β2, the “β2 Int Act” value is on record as 0.87 and the EC50 was 3.16 nM. The IC50 in assay [1] is 1000 nM. The IC50 in assay [2] is 100 nM.

As for `O=C1COc2c(CCNCCN(C(=O)CCNCCc3cccc(Cl)c3)C3CCCCCC3)ccc(O)c2N1` [Example 68, 3-(3-Chlorophenethylamino)-N-cycloheptyl-N-(2-(2-(5-hydroxy-3-oxo-3,4-dihydro-2H-benzo[b][1,4]oxazin-8-yl)ethylamino)ethyl)propanamide bis(trifluoroacetate)], at Adrenergic β2, the “β2 Int Act” value stood at 0.93 and the EC50 was 3.98 nM. For the same compound, the IC50 in assay [1] was 398 nM. For the same compound, the IC50 in assay [2] is 100 nM.

Consider `O=C1COc2c(CCNCCN(C(=O)CCNCCc3cccc(F)c3)C3CCCCCC3)ccc(O)c2N1` [Example 69, N-Cycloheptyl-3-(3-fluorophenethylamino)-N-(2-(2-(5-hydroxy-3-oxo-3,4-dihydro-2H-benzo[b][1,4]oxazin-8-yl)ethylamino)ethyl)propanamide bis(trifluoroacetate)], for which, on Adrenergic β2, the “β2 Int Act” value amounted to 0.88 and the EC50 was 1.58 nM. In addition, in assay [1], the IC50 is 794 nM. Also, in assay [2], the IC50 is 158 nM.

In the case of `O=C1COc2c(CCNCCN(C(=O)CCOCCc3ccccc3)C3CCCCC3)ccc(O)c2N1` [Example 70, N-Cyclohexyl-N-(2-(2-(5-hydroxy-3-oxo-3,4-dihydro-2H-benzo[b][1,4]oxazin-8-yl)ethylamino)ethyl)-3-phenethoxypropanamide trifluoroacetate], at Adrenergic β2, the “β2 Int Act” value was found to be 0.97 and the EC50 was 3.98 nM. The IC50 in assay [1] was 3980 nM. For the same compound, the IC50 in assay [2] is 1000 nM.

For the compound `O=C1COc2c(CCNCCN(C(=O)CCOCCc3cccc(F)c3)C3CCCCC3)ccc(O)c2N1` [Example 74, N-Cyclohexyl-3-(3-fluorophenethoxy)-N-(2-(2-(5-hydroxy-3-oxo-3,4-dihydro-2H-benzo[b][1,4]oxazin-8-yl)ethylamino)ethyl)propanamide trifluoroacetate], at Adrenergic β2, the “β2 Int Act” value was 0.97 and the EC50 was 2 nM. For the same compound, the IC50 in assay [1] is 2510 nM. For the same compound, in assay [2], the IC50 is 2000 nM.

Turning to `O=C1COc2c(CCNCCN(C(=O)CCOCCc3ccc(F)cc3)C3CCCCC3)ccc(O)c2N1` [Example 75, N-Cyclohexyl-3-(4-fluorophenethoxy)-N-(2-(2-(5-hydroxy-3-oxo-3,4-dihydro-2H-benzo[b][1,4]oxazin-8-yl)ethylamino)ethyl)propanamide trifluoroacetate], the “β2 Int Act” value at Adrenergic β2 was 0.96. For the same compound, the EC50 on Adrenergic β2 is 2.51 nM. Also, the values for the IC50 in assay [1] and in assay [2] were 1260 nM and 2000 nM, respectively.

As to `O=C1COc2c(CCNCCN(C(=O)CCOCCc3ccccc3F)C3CCCCC3)ccc(O)c2N1` [Example 76, N-Cyclohexyl-3-(2-fluorophenethoxy)-N-(2-(2-(5-hydroxy-3-oxo-3,4-dihydro-2H-benzo[b][1,4]oxazin-8-yl)ethylamino)ethyl)propanamide trifluoroacetate], the “β2 Int Act” value at Adrenergic β2 came out at 1.1. The EC50 at Adrenergic β2 was 1.58 nM. Also, the results for the IC50 in assay [1] and in assay [2] were 2000 nM and 2510 nM, respectively.

Turning to `O=C1COc2c(CCNCCN(C(=O)CCOCCc3cccc(Cl)c3)C3CCCCC3)ccc(O)c2N1` [Example 77, 3-(3-Chlorophenethoxy)-N-cyclohexyl-N-(2-(2-(5-hydroxy-3-oxo-3,4-dihydro-2H-benzo[b][1,4]oxazin-8-yl)ethylamino)ethyl)propanamide trifluoroacetate], on Adrenergic β2, the “β2 Int Act” value is listed as 0.97 and the EC50 is 2 nM. For the same compound, in assay [1], the IC50 was 3160 nM. Moreover, in assay [2], the IC50 is 2000 nM.

On to `CC[C@@H](C)N(CCNCCc1ccc(O)c2[nH]c(=O)ccc12)C(=O)CCOCCc1ccccc1.Cl` [Example 79, (R)—N-sec-Butyl-N-(2-(2-(8-hydroxy-2-oxo-1,2-dihydroquinolin-5-yl)ethylamino)ethyl)-3-phenethoxypropanamide hydrochloride], for which, at Adrenergic β2, the “β2 Int Act” value turned out to be 0.92 and the EC50 was 50.1 nM. Also, in assay [1], the IC50 was more than 10000 nM. Also, the IC50 in assay [2] is more than 10000 nM.

As to `CC(C)[C@@H](C)N(CCNCCc1ccc(O)c2[nH]c(=O)ccc12)C(=O)CCOCCc1ccccc1.Cl` [Example 80, (R)—N-(2-(2-(8-Hydroxy-2-oxo-1,2-dihydroquinolin-5-yl)ethylamino)ethyl)-N-(3-methylbutan-2-yl)-3-phenethoxypropanamide hydrochloride], at Adrenergic β2, the “β2 Int Act” value amounted to 1.04 and the EC50 is 25.1 nM. Also, the IC50 in assay [1] was more than 10000 nM. Also, the IC50 in assay [2] is 2510 nM.
